Measured values taken from the supplement of paper PMC10307832.

Legend:
Assay in all cases: relative viability (nuclei count vs DMSO), 5 days (fraction); higher = more cells survive
[1] = compound: CN1C=C(C2=CC=CC=C21)/C=C\3/C4=C(C=CC=N4)NC3=O + C[C@]1(O)C[C@@H](c2nc(-c3ccc4ccc(-c5ccccc5)nc4c3)c3c(N)nccn32)C1 [Linsitinib] (partner 1 µM)
Method in brief: (§1)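 For relative viability, nuclei counts in treated wells were divided by those in vehicle wells. Lung cancer cell lines had been pin-tool dosed in 1536-well plates the day after seeding and cultured for 5 days, then fixed and stained in one step (final 0.05% Triton X-100, 1% formaldehyde, 1 ug/ml Hoechst) and imaged at 4×. Doses were one drug alone or a fixed anchor-drug dose plus five library-drug doses (not always all listed) in √10 steps, and values are duplicate-plate medians.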

Trametinib + Tozasertib = compound: CC(=O)Nc1cccc(-n2c(=O)n(C3CC3)c(=O)c3c(Nc4ccc(I)cc4F)n(C)c(=O)c(C)c32)c1 [Trametinib] + Cc1cc(Nc2cc(N3CCN(C)CC3)nc(Sc3ccc(NC(=O)C4CC4)cc3)n2)n[nH]1 [Tozasertib] (partner 0.1 µM)
Method in brief: as §1

[2] = compound: CN1C=C(C2=CC=CC=C21)/C=C\3/C4=C(C=CC=N4)NC3=O + CC(C)C[C@H](NC(=O)[C@H](Cc1ccccc1)NC(=O)c1cnccn1)B(O)O [Bortezomib] (partner 0.002 µM)
Method in brief: as §1

Trametinib + Lapatinib = compound: CC(=O)Nc1cccc(-n2c(=O)n(C3CC3)c(=O)c3c(Nc4ccc(I)cc4F)n(C)c(=O)c(C)c32)c1 [Trametinib] + CS(=O)(=O)CCNCc1ccc(-c2ccc3ncnc(Nc4ccc(OCc5cccc(F)c5)c(Cl)c4)c3c2)o1 [Lapatinib] (partner 2 µM)
Method in brief: as §1

Row | Cell Line | relative viability ([1]; first compound 0.02 µM) | relative viability ([1]; first compound 0.06325 µM) | relative viability ([1]; first compound 0.2 µM) | relative viability ([1]; first compound 0.6325 µM) | relative viability ([1]; first compound 2 µM) | relative viability (Trametinib + Tozasertib; first compound 0.0025 µM) | relative viability (Trametinib + Tozasertib; first compound 0.007906 µM) | relative viability (Trametinib + Tozasertib; first compound 0.025 µM) | relative viability (Trametinib + Tozasertib; first compound 0.07906 µM) | relative viability (Trametinib + Tozasertib; first compound 0.25 µM) | relative viability ([2]; first compound 0.02 µM) | relative viability ([2]; first compound 0.06325 µM) | relative viability ([2]; first compound 0.2 µM) | relative viability ([2]; first compound 0.6325 µM) | relative viability ([2]; first compound 2 µM) | relative viability (Trametinib + Lapatinib; first compound 0.0025 µM) | relative viability (Trametinib + Lapatinib; first compound 0.007906 µM) | relative viability (Trametinib + Lapatinib; first compound 0.025 µM) | relative viability (Trametinib + Lapatinib; first compound 0.07906 µM) | relative viability (Trametinib + Lapatinib; first compound 0.25 µM)
1 | 201T | 0.993 | 1.05 | 0.967 | 1.09 | 0.786 | 0.985 | 0.835 | 0.795 | 0.798 | 0.653 | 1.02 | 1.18 | 1.07 | 1.16 | 1.09 | 1.06 | 0.922 | 0.93 | 0.879 | 0.928
2 | A549 | 0.596 | 0.512 |  | 0.543 | 0.586 |  |  |  |  |  |  |  |  |  |  | 0.749 | 0.667 | 0.618 | 0.499 | 0.0742
3 | A-427 | 1.06 | 1.07 |  | 1.15 | 1.12 | 0.217 | 0.159 | 0.158 | 0.166 | 0.173 | 0.939 | 0.9 |  | 1.03 | 1.21 | 1.1 | 1.05 | 0.619 | 0.818 | 0.678
4 | ABC-1 | 0.797 | 0.704 | 0.604 | 0.729 | 0.712 | 0.169 | 0.153 | 0.154 | 0.148 | 0.158 | 0.368 | 0.257 | 0.285 | 0.299 | 0.372 | 0.789 | 1.16 | 1.18 | 1.13 | 1.2
5 | BEN | 0.847 | 0.996 | 0.823 | 0.875 | 1.03 | 0.461 | 0.497 | 0.458 | 0.602 | 0.476 | 0.82 | 0.557 | 0.64 | 0.593 | 0.917 | 0.681 | 0.651 |  | 0.506 | 0.593
6 | CAL-12T | 0.821 | 0.787 | 0.809 | 1.05 | 0.809 | 0.275 | 0.273 | 0.196 | 0.199 | 0.202 | 0.904 | 0.882 | 0.945 | 1.08 | 1.04 | 0.54 | 0.514 | 0.47 | 0.648 | 0.429
7 | COR-L23 | 0.924 | 0.967 | 0.865 | 1.03 | 0.865 | 0.193 | 0.208 | 0.165 | 0.178 | 0.149 | 1.01 | 0.953 | 1.19 | 0.866 | 1.04 | 1.04 | 0.923 | 0.786 | 0.788 | 0.48
8 | COR-L 105 | 0.969 | 0.948 | 0.9 | 0.809 | 0.916 | 0.287 | 0.387 | 0.338 | 0.31 | 0.223 | 0.743 | 0.749 | 0.693 | 0.675 | 0.811 | 0.37 | 0.413 | 0.332 | 0.381 | 0.326
9 | Calu-6 | 0.926 | 0.903 | 0.919 | 0.975 | 0.915 |  |  |  |  |  | 0.985 | 0.923 | 0.87 | 0.946 | 1.04 | 0.962 | 0.779 | 0.566 | 0.237 | 0.165
10 | ChaGo-K-1 |  |  |  |  |  | 0.232 | 0.223 | 0.214 | 0.201 | 0.191 | 0.902 | 0.94 |  | 0.987 | 0.979 |  |  |  |  | 
11 | EBC-1 | 1.03 | 0.873 | 0.723 | 0.922 | 0.971 |  |  |  |  |  | 0.473 | 0.524 | 0.51 | 0.572 | 0.494 | 0.189 | 0.199 | 0.189 | 0.225 | 0.213
12 | EKVX | 0.911 | 0.926 | 0.921 | 0.729 | 0.883 | 0.387 | 0.397 | 0.335 | 0.227 | 0.26 | 1.05 | 0.79 | 0.946 | 1.04 | 0.972 | 0.177 | 0.154 | 0.136 | 0.155 | 0.157
13 | EMC-BAC-2 | 0.787 | 0.826 | 0.806 | 0.852 | 0.867 | 0.369 | 0.354 | 0.41 | 0.457 | 0.328 | 0.901 | 1.05 | 1.01 | 1.05 | 1.14 | 0.866 | 0.872 | 0.711 | 0.92 | 0.626
14 | EPLC-272H | 1.54 | 1.12 |  | 1.31 | 1.23 | 0.207 | 0.203 | 0.212 | 0.149 | 0.266 | 0.959 | 0.704 |  | 0.918 | 0.873 | 0.911 | 0.56 | 0.493 | 0.609 | 0.125
15 | H3255 | 1.06 | 0.989 | 0.945 | 0.816 | 1.11 | 0.572 | 0.777 | 0.579 | 0.514 | 0.411 | 0.935 | 0.843 | 0.704 | 0.701 | 0.655 | 0.246 | 0.188 | 0.269 | 0.201 | 0.236
16 | HARA | 0.93 | 0.92 | 1.03 | 0.932 | 1.06 | 0.12 | 0.101 | 0.0849 | 0.108 | 0.0591 | 1.06 | 1.09 | 0.87 | 1.18 | 1.14 | 0.585 | 0.583 | 0.541 | 0.513 | 0.509
17 | HCC-15 | 0.907 | 0.841 | 0.933 | 0.853 | 0.976 | 0.345 | 0.234 | 0.161 | 0.148 | 0.15 | 0.972 | 0.939 | 1.09 | 1.09 | 1.18 | 0.806 | 0.461 | 0.572 | 0.328 | 0.223
18 | HCC-44 | 0.577 | 0.637 | 0.651 | 0.593 | 0.604 | 0.897 | 0.519 | 0.801 | 0.594 | 0.228 | 0.888 | 0.8 | 0.858 | 0.756 | 0.847 | 0.996 | 0.868 | 0.929 | 0.701 | 0.493
